Results on four compounds are retold here after patent US20210040089A1, “KRAS MUTANT PROTEIN INHIBITORS” (Jacobio Pharmaceuticals Co., Ltd., priority 2019, published 2021).

For assay [1], the system named is NCI-H358 cells express KRAS G12C. Nature of the assay: Cell growth inhibition assay (CCK-8). It counts as cell-based. The following applies: Homo sapiens, 144 h; NCI-H358, 6 days incubation. An outline of the steps: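 Antiproliferative read-out: KRAS G12C-mutant NCI-H358 lung cancer cells (3000/well) exposed to compounds in RPMI 1640 with 10% FBS for 6 days at 37°C. Viability by CCK-8 (OD450) after 1.5-2 h; IC50 from 4-parameter logistic fit.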

Another assay concerns NCI-H1373 cells. Nature of the assay: NCI-H1373 xenograft model. The assay is classed as in vivo, female BALB/c mice. The note with it: for TGI % / Tumor volume at the end (Day 22): Day 22. The protocol:
4. NCI-H1373 xenograft model
NCI-H1373 cells (5.0E+06 cells) were injected subcutaneously into the right flank of female BALB/c mice (6-8 weeks) in a mixture with Matrigel (BD Bioscience). Mice were monitored daily and caliper measurements began when tumors became visible. Tumor volume was calculated by measuring two perpendicular diameters using the following formula: (L*w^2)/2 in which L and w refer to the length and width tumor diameter, respectively. When the average tumor volume reached 150-200 mm^3, mice were grouped (n=6/group) and treated with compounds. Tumor volume and mice weight was measured twice a week during treatment (˜3 weeks). Tumor growth inhibition rates were calculated by TGI %=(1−(Vt−Vt0)/(Vc−Vc0))*100%, where Vc, Vt are the mean tumor volume of control and treated groups at the end of the study, and Vc0 and Vt0 are the mean tumor volume of control and treated groups at the start.

In assay [2] the test system is Phospho-ERK1/2(THR202/TYR204) in NCI-H358 cells express KRAS G12C. Nature of the assay: Phospho-ERK1/2(THR202/TYR204) HTRF assay. It counts as cell-based. The following applies: Homo sapiens; NCI-H358, 2 hours incubation; read-out: p-ERK inhibition in NCI-H358 IC50. An outline of the steps: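 Compounds applied to attached cells for 2 h at 37 °C in RPMI 1640 with 0.1% FBS. Lysate phospho-ERK1/2 detected by HTRF after 4 h antibody incubation at 25 °C; IC50 from 4-parameter logistic fit.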
A general note: Time-resolved FRET reads energy transfer from a long-lived donor to a nearby acceptor.

Another assay deals with T1, KRAS G12C (Homo sapiens, UniProt P01116, G12C).
T1 construct: HIS-KRAS (G12C, aa 2-185, Sino biological); purchased Sino biological
Nature of the assay: SOS1 catalyzed nucleotide exchange assay (TR-FRET). It counts as biochemical. The note with it: GDP-loaded HIS-KRAS(G12C), 1 hour pre-incubation with compound. The essentials:
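EDTA-stripped, GDP-loaded His-KRAS G12C (aa 2-185; 3 nM final) preincubated 1 h with compound, then SOS1 ExD (aa 564-1049; 2 μM) and BODIPY-FL GTP (80 nM) added for 4 h at 25 °C. TR-FRET via anti-His Tb cryptate (515/486 nm ratio); IC50 from 4-parameter logistic fit.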

T1 sequence (P01116 2-185 isoform P01116-2 G12C): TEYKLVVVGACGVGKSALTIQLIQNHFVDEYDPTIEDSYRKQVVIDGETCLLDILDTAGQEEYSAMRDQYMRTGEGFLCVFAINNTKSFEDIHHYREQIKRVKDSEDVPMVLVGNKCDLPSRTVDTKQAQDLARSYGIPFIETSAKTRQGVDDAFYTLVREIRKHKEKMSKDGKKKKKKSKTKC

Usually IC50 stands for the midpoint of a concentration-inhibition curve. `Cc1cccc2cccc(N3CCc4c(nc(OCC5(CN(C)C)CC5)nc4N4CCN(C(=O)/C=C/CF)[C@@H](CC#N)C4)C3)c12` [Compound 68, (S,E)-2-(4-(2-((1-((dimethylamino)methyl)cyclopropyl)methoxy)-7-(8-methylnaphthalen-1-yl)-5,6,7,8-tetrahydropyrido[3,4-d]pyrimidin-4-yl)-1-(4-fluorobut-2-enoyl)piperazin-2-yl)acetonitrile] had an IC50 in assay [1] of 51.5 nM. In the assay with NCI-H1373 cells (Table 2, 10 mg/kg, BID), the TGI % amounted to 82.6%, the “Tumor volume at the end (Day 22)” value came out at 490 mm^3 and the “Tumor volume at the start” value was found to be 191 mm^3. Further, the half-inhibitory concentration (IC50) in assay [2] came to 69.2 nM. At KRAS G12C, the IC50 came to 1.6 nM.
With `C=CC(=O)N1CCN(c2nc(OCC3(CN4CCCC4)CC3)nc3c2CCN(c2cccc4cccc(C)c24)C3)C[C@@H]1CC#N` [Compound 67, (S)-2-(1-acryloyl-4-(7-(8-methylnaphthalen-1-yl)-2-((1-(pyrrolidin-1-ylmethyl)cyclopropyl)methoxy)-5,6,7,8-tetrahydropyrido[3,4-d]pyrimidin-4-yl)piperazin-2-yl)acetonitrile], the IC50 in assay [1] was 20.4 nM. In the assay on NCI-H1373 cells (Table 3, 10 mg/kg, QD), the TGI % stood at 106.1%, the “Tumor volume at the end (Day 22)” value is on record as 114 mm^3 and the “Tumor volume at the start” value amounted to 188 mm^3. The IC50 in assay [2] is 22.4 nM. Also, the 50% inhibitory concentration (IC50) on KRAS G12C amounted to 1.84 nM.
With `C=C(F)C(=O)N1CCN(c2nc(OCC3(CN(C)C)CC3)nc3c2CCN(c2cccc4cccc(C)c24)C3)C[C@@H]1CC#N` [Compound 83, (S)-2-(4-(2-((1-((dimethylamino)methyl)cyclopropyl)methoxy)-7-(8-methylnaphthalen-1-yl)-5,6,7,8-tetrahydropyrido[3,4-d]pyrimidin-4-yl)-1-(2-fluoroacryloyl)piperazin-2-yl)acetonitrile], in assay [1], inhibition was half-maximal at 116 nM (IC50). In the assay on NCI-H1373 cells (Table 2, 10 mg/kg, BID), the TGI % is reported as 89.4%, the “Tumor volume at the end (Day 22)” value was determined as 374 mm^3 and the “Tumor volume at the start” value is 191 mm^3. For the same compound, the IC50 in assay [2] is 190 nM. Besides, the IC50 on KRAS G12C worked out at 3.9 nM.
For `C=CC(=O)N1CCN(c2nc(OCC3(CN4CCCC4)CC3)nc3c2CCN(c2cccc4cccc(C)c24)C3)CC1CC#N` (stereo not drawn) [Compound 56, 2-(1-acryloyl-4-(7-(8-methylnaphthalen-1-yl)-2-((1-(pyrrolidin-1-ylmethyl)cyclopropyl)methoxy)-5,6,7,8-tetrahydropyrido[3,4-d]pyrimidin-4-yl)piperazin-2-yl)acetonitrile], the IC50 in assay [1] worked out at 22.4 nM; in assay [2] it was 38.2 nM; at KRAS G12C, 3.19 nM. Besides, the TGI % in the assay on NCI-H1373 cells (Table 2, 10 mg/kg, BID) is 102.5%. Also, the “Tumor volume at the end (Day 22)” value in the assay on NCI-H1373 cells (Table 2, 10 mg/kg, BID) worked out at 148 mm^3. Also, the “Tumor volume at the start” value in the assay on NCI-H1373 cells (Table 2, 10 mg/kg, BID) was 191 mm^3.
